Measurements published in PubChem BioAssay AID1918946 (Molecular Pharmacology Branch, DTP, NCI, 2023).
Several values for one entry are separate records, joined by “and”; a condition that tells them apart may be missing. Equal values may be shown once. One block for each compound: values may come before it.

Test system: 885512-296-R-J2-PDC complex spheroid viability
Experiment: Anticancer human tumor 885512-296-R-J2-PDC patient-derived breast carcinoma cell line growth inhibition
Conditions: for viability, T/C: stronger effect = lower value
Excerpt: Multicellular complex tumor spheroid response to LSD1 Inhibitor Iadademstat in combination with a variety of drugs and investigational agents in selected tumor cell lines
The current study was undertaken to assess response to LSD1 inhibitors in combination with standard-of-care drugs and investigational agents in solid tumor complex spheroid models as well as in the K-562 leukemia. Complex spheroids include a stromal component modeled by human endothelial cells (HUVEC) and fibroblasts modeled by human mesenchymal stem cells (MSCs). The concentration ranges selected for each drug and investigational agent were based upon clinically achievable concentrations if the clinical Cmax of the agent was known.
Compounds. The drugs and investigational agents used in this study are listed on Table 1. All of the agents used, including staurosporine (NSC755774) and gemcitabine (NSC613327), were obtained from the Developmental Therapeutics Program, NCI. FDA-approved anticancer drugs are available from the NCI at http://dtp.nci.nih.gov/branches/dscb/oncology_drugset_explanation.html. Drugs and investigational agents were >95% pure by proton nuclear magnetic resonance (NMR) and liquid chromatography/mass spectrometry (LC/MS). Stock solutions were prepared at 400x in DMSO, stored at -70 degrees C, and diluted in fresh medium prior to their use. The final concentration of DMSO in cell culture wells never exceeded 0.25% (v/v). The FDA-approved anticancer drug set is available from the Developmental Therapeutics Program at https://dtp.cancer.gov/organization/dscb/obtaining/available_plates.htm. All drugs and investigational agents were tested over a range starting from a high concentration at or near the clinical Cmax and decreasing in half-log increments. If the clinical Cmax for an agent had not been determined, the highest concentration tested was 10 microM.
Cell Lines. The patient-derived cancer cell (PDC) lines: 292921-168-R-J2-PDC, K24384-001-R-PDC, and 521955-158-R2-J5-PDC pancreatic carcinomas, 556581-035-R-J1 ovarian carcinoma, 324938-238-R-J1-PDC, 855422-203-R-J1-PDC and 883617-216-R-J1-PDC urothelial bladder carcinomas, 743489-274-T-PDC renal cell carcinoma, 138582-R-J1 Merkel cell tumor, K60290-347-R-J1 and K57222-313-R-J1-PDC glioblastomas, 653999-131-R-J2-PDC, LG0703-F948-PDC, and 349418-098-R-PDC non-small cell lung carcinomas, 885512-296-R-J2-PDC, 171881-019-R-J1-PDC breast carcinomas and 186277-243-T-J2-PDC and 233499-124-R-J2-PDC colon carcinomas were obtained from the NCI Patient-Derived Models Repository (PDMR, https://pdmr.cancer.gov). The established cell lines NCI/ADR-RES (RRID:CVCL_14520 and OVCAR-5 (RRID:CVCL_1628) ovarian carcinomas, 786-O (RRID:CVCL_1051) and A498 (RRID:CVCL_A498) renal cell carcinoma, NCI-H211 (ATCC, cat. CRL-5824; RRID:CVCL_1529), NCI-H196 (ATCC, cat. CRL-5823, RRID:CVCL_1509), SW 1271 (ATCC, cat. CRL-2177, RRID:CVCL_1716) and NCI-H1876 (ATCC, cat. CRL-5902, RRID:CVCL_1503) small cell lung carcinomas, MDA-MB-231 (RRID:CVCL_0062) and MDA-MB-468 (RRID:CVCL_0419)breast carcinomas (10-12). Pooled donor human umbilical vein endothelial cells (HUVEC, Lonza, cat. CC-2519) and human mesenchymal stem cells (hMSC, Lonza, cat. PT-2501) were purchased from Lonza (Walkersville, MD).
Cell Culture. All cells were maintained in an incubator at 37 degrees C and 5% CO2 with 95% humidity. The PDC lines were cultured according to standard operating procedures established by the NCI PDMR (https://pdmr.cancer.gov). Briefly all PDCs were thawed and cultured in Matrigel-coated flasks prepared with a working solution of 1X Ham's F-12 nutrient mix, without supplementation (Invitrogen, Waltham, MA, cat. 11765054), 100 U/mL penicillin-streptomycin (Invitrogen, cat. 15140122), and 2.5% Matrigel (Corning Inc., Corning, NY, cat. 354248) for the first three passages. […]

[1] = curve of first compound, second compound 0.1 µM
[2] = curve of first compound, second compound 0.316 µM
[3] = curve of first compound, second compound 1 µM
[4] = curve of first compound, second compound 3.16 µM
[5] = curve of first compound, second compound 10 µM
[6] = second compound 0.1 µM, first compound 0.00949 µM
[7] = second compound 0.1 µM, first compound 0.03 µM
[8] = second compound 0.1 µM, first compound 0.0949 µM
[9] = second compound 0.1 µM, first compound 0.3 µM
[10] = second compound 0.316 µM, first compound 0.00949 µM
[11] = second compound 0.316 µM, first compound 0.03 µM
[12] = second compound 0.316 µM, first compound 0.0949 µM
[13] = second compound 0.316 µM, first compound 0.3 µM
[14] = second compound 1 µM, first compound 0.00949 µM
[15] = second compound 1 µM, first compound 0.03 µM
[16] = second compound 1 µM, first compound 0.0949 µM
[17] = second compound 1 µM, first compound 0.3 µM
[18] = second compound 3.16 µM, first compound 0.00949 µM
[19] = second compound 3.16 µM, first compound 0.03 µM
[20] = second compound 3.16 µM, first compound 0.0949 µM
[21] = second compound 3.16 µM, first compound 0.3 µM
[22] = second compound 10 µM, first compound 0.00949 µM
[23] = second compound 10 µM, first compound 0.03 µM
[24] = second compound 10 µM, first compound 0.0949 µM
[25] = second compound 10 µM, first compound 0.3 µM
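Also: spheroids exposed to agents for 7 days before viability read.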

Compound: CCN(c1cc(-c2ccc(CN3CCOCC3)cc2)cc(C(=O)NCc2c(C)cc(C)[nH]c2=O)c1C)C1CCOCC1 + NC1CC1c1ccc(-c2cccc(O)c2)cc1
- IC50 [1]: 158 nM
- IC50 [2]: 165 nM
- IC50 [3]: 151 nM
- IC50 [4]: 153 nM
- IC50 [5]: 93.1 nM
- viability, T/C [6]: 106%
- viability, T/C [7]: 108%
- viability, T/C [8]: 67.2%
- viability, T/C [9]: 26.9%
- viability, T/C (second compound 0.1 µM, first compound 0.949 µM): 19.2%
- viability, T/C (second compound 0.1 µM, first compound 3 µM): 7.41%
- viability, T/C [10]: 120%
- viability, T/C [11]: 103%
- viability, T/C [12]: 65.8%
- viability, T/C [13]: 31.9%
- viability, T/C (second compound 0.316 µM, first compound 0.949 µM): 16.2%
- viability, T/C (second compound 0.316 µM, first compound 3 µM): 7.17%
- viability, T/C [14]: 120%
- viability, T/C [15]: 105%
- viability, T/C [16]: 60.6%
- viability, T/C [17]: 31.1%
- viability, T/C (second compound 1 µM, first compound 0.949 µM): 16.7%
- viability, T/C (second compound 1 µM, first compound 3 µM): 6.44%
- viability, T/C [18]: 100%
- viability, T/C [19]: 86.6%
- viability, T/C [20]: 63.2%
- viability, T/C [21]: 31.6%
- viability, T/C (second compound 3.16 µM, first compound 0.949 µM): 16.8%
- viability, T/C (second compound 3.16 µM, first compound 3 µM): 7.23%
- viability, T/C [22]: 84%
- viability, T/C [23]: 78.7%
- viability, T/C [24]: 48.2%
- viability, T/C [25]: 21.1%
- viability, T/C (second compound 10 µM, first compound 0.949 µM): 12.8%
- viability, T/C (second compound 10 µM, first compound 3 µM): 6.35%

- IC50 (curve of compound): 151 nM and 317 nM
Compound: CC1COCCN1c1cc(C2(S(C)(=N)=O)CC2)nc(-c2ccnc3[nH]ccc23)n1 (configuration not stated)
- viability, T/C (compound 0.0316 µM): 89.7% and 84.5%
- viability, T/C (compound 0.1 µM): 69.7% and 90.6%
- viability, T/C (compound 0.316 µM): 14.4% and 49.3%
- viability, T/C (compound 1 µM): 7.6% and 9.02%
- viability, T/C (compound 3.16 µM): 7.26% and 2.77%
- viability, T/C (compound 10 µM): 7.13% and 1.85%

Compound: CC(C)c1c(-c2ccccc2)nc2c(C#N)c[nH]n2c1=O + NC1CC1c1ccc(-c2cccc(O)c2)cc1
- IC50 [1]: > 10000 nM
- IC50 [2]: > 10000 nM
- IC50 [3]: > 10000 nM
- IC50 [4]: > 10000 nM
- IC50 [5]: 6760 nM
- viability, T/C (second compound 0.1 µM, first compound 0.0316 µM): 120%
- viability, T/C (second compound 0.1 µM, first compound 0.1 µM): 128%
- viability, T/C (second compound 0.1 µM, first compound 0.316 µM): 127%
- viability, T/C (second compound 0.1 µM, first compound 1 µM): 118%
- viability, T/C (second compound 0.1 µM, first compound 3.16 µM): 119%
- viability, T/C (second compound 0.1 µM, first compound 10 µM): 84.8%
- viability, T/C (second compound 0.316 µM, first compound 0.0316 µM): 140%
- viability, T/C (second compound 0.316 µM, first compound 0.1 µM): 124%
- viability, T/C (second compound 0.316 µM, first compound 0.316 µM): 128%
- viability, T/C (second compound 0.316 µM, first compound 1 µM): 128%
- viability, T/C (second compound 0.316 µM, first compound 3.16 µM): 137%
- viability, T/C (second compound 0.316 µM, first compound 10 µM): 87.4%
- viability, T/C (second compound 1 µM, first compound 0.0316 µM): 132%
- viability, T/C (second compound 1 µM, first compound 0.1 µM): 121%
- viability, T/C (second compound 1 µM, first compound 0.316 µM): 118%
- viability, T/C (second compound 1 µM, first compound 1 µM): 118%
- viability, T/C (second compound 1 µM, first compound 3.16 µM): 125%
- viability, T/C (second compound 1 µM, first compound 10 µM): 74.9%
- viability, T/C (second compound 3.16 µM, first compound 0.0316 µM): 138%
- viability, T/C (second compound 3.16 µM, first compound 0.1 µM): 131%
- viability, T/C (second compound 3.16 µM, first compound 0.316 µM): 118%
- viability, T/C (second compound 3.16 µM, first compound 1 µM): 108%
- viability, T/C (second compound 3.16 µM, first compound 3.16 µM): 124%
- viability, T/C (second compound 3.16 µM, first compound 10 µM): 71.9%
- viability, T/C (second compound 10 µM, first compound 0.0316 µM): 88%
- viability, T/C (second compound 10 µM, first compound 0.1 µM): 88.3%
- viability, T/C (second compound 10 µM, first compound 0.316 µM): 88.5%
- viability, T/C (second compound 10 µM, first compound 1 µM): 70.1%
- viability, T/C (second compound 10 µM, first compound 3.16 µM): 72.9%
- viability, T/C (second compound 10 µM, first compound 10 µM): 40.1%

Compound: Nc1ncn(C2CC(O)C(CO)S2)c(=O)n1 (configuration not stated) + NC1CCC(NC2CC2c2ccccc2)CC1
- IC50 [1]: 5.37 nM
- IC50 [2]: 4.73 nM
- IC50 [3]: 4.84 nM
- IC50 [4]: 4.82 nM
- IC50 [5]: 2.75 nM
- viability, T/C (second compound 0.1 µM, first compound 0.000949 µM): 81.1%
- viability, T/C (second compound 0.1 µM, first compound 0.003 µM): 67.9%
- viability, T/C [6]: 32.5%
- viability, T/C [7]: 15.5%
- viability, T/C [8]: 12.6%
- viability, T/C [9]: 11.3%
- viability, T/C (second compound 0.316 µM, first compound 0.000949 µM): 93%
- viability, T/C (second compound 0.316 µM, first compound 0.003 µM): 59%
- viability, T/C [10]: 36.4%
- viability, T/C [11]: 20.6%
- viability, T/C [12]: 12.4%
- viability, T/C [13]: 10%
- viability, T/C (second compound 1 µM, first compound 0.000949 µM): 99.2%
- viability, T/C (second compound 1 µM, first compound 0.003 µM): 62.2%
- viability, T/C [14]: 32.8%
- viability, T/C [15]: 17.3%
- viability, T/C [16]: 11.5%
- viability, T/C [17]: 6.83%
- viability, T/C (second compound 3.16 µM, first compound 0.000949 µM): 83%
- viability, T/C (second compound 3.16 µM, first compound 0.003 µM): 61.6%
- viability, T/C [18]: 33.3%
- viability, T/C [19]: 18.8%
- viability, T/C [20]: 12.4%
- viability, T/C [21]: 8.51%
- viability, T/C (second compound 10 µM, first compound 0.000949 µM): 79.8%
- viability, T/C (second compound 10 µM, first compound 0.003 µM): 47.5%
- viability, T/C [22]: 23.8%
- viability, T/C [23]: 11.2%
- viability, T/C [24]: 9.62%
- viability, T/C [25]: 6.05%
